ChEMBL document CHEMBL5108045, “Identification and Utilization of a Chemical Probe to Interrogate the Roles of PIKfyve in the Lifecycle of β-Coronaviruses” (J Med Chem, 2022)
Calls of active or inactive are those of the source. The rule behind the calls is not given here.

Experiments:
[1] = (§1) Inhibition of His-6 tagged SARS-CoV-2 spike protein uptake in ACE2 overexpressing HEK293T cells at 1 uM incubated for 30 mins by DAPI staining based confocal microscopy analysis; format: functional; conditions: Homo sapiens, HEK-293T, 0.5 h
HEK-293T = assay: as §1; format: functional; conditions: Homo sapiens

Row | Compound | inhibition at 1 µM [1] [%] | inhibition (HEK-293T)
1 | CC(C)(O)C#Cc1ccc2[nH]c3c(c2c1)-c1nc(N)ncc1CCC3 | < 10 | –
2 | CN(C)CC#Cc1ccc2[nH]c3c(c2c1)-c1nc(N)ncc1CCC3 | – | Active
3 | Cc1cccc(/C=N/Nc2cc(N3CCOCC3)nc(OCCc3ccccn3)n2)c1 | – | Active
4 | Nc1ncc2c(n1)-c1c([nH]c3ccc(-c4ccc(F)cc4)cc13)CCC2 | – | Active
